Experiment [1] concerns G-quadruplex of oligonucleotide GGGTTAGGGTTAGGGTTAGGG (3.5 repeats of the human telomereic motif). Briefly: G-quadruplex stabilizing activity, fluorescence Tm (FAM+DABCYL oligonucleotide). Format: binding. The text has this:
The G-quadruplex stabilizing activity may be determined by a method using the formation of a complex with fluorescein of which the experimental protocol is described below.
All the nucleotides, modified or otherwise, were synthesized by Eurogentec SA, Seraing, Belgium. The oligonucleotide FAM+DABCYL carries the catalogue reference OL-0371-0802. It has the sequence: […] corresponding to 3.5 repeats of the human telomereic motif (strand rich in G). The fluorescein is attached to the 5′ end, the DABCYL to the 3′ end, by the chemical arms described by Eurogentec. The concentration of the samples is checked by spectrophotometry, recording the absorbance spectrum between 220 and 700 nm and using the molar extinction coefficient provided by the supplier.
All the experiments were carried out in a 10 mM sodium cacodylate buffer pH 7.6 containing 0.1 M lithium chloride (or sodium chloride). The absence of fluorescent contamination in the buffer was checked beforehand. The fluorescent oligonucleotide is added at the final concentration of 0.2 μM.
All the measurements of fluorescence were carried out on a Spex Fluorolog DM1B apparatus, using an excitation line width of 1.8 nm and an emission line width of 4.5 nm. The samples are placed in a microquartz cuvette of 0.2×1 cm. The temperature of the sample is controlled by an external water bath. The oligonucleotide alone was analysed at 20, 30, 40, 50, 60, 70 and 80° C. The emission spectra are recorded using an excitation wavelength of 470 nm. The excitation spectra are recorded using either 515 nm or 588 nm as emission wavelength. The spectra are corrected for the response of the instrument by reference curves. A high extinction (80-90%) of the fluorescence of fluorescein at room temperature is observed, in agreement with an intramolecular folding of the oligonucleotide at 20° C. in the form of a G-quadruplex, which induces juxtaposition of its 5′ and 3′ ends which are respectively linked to fluorescein and to DABCYL. This juxtaposition causes an already-described phenomenon of extinction of fluorescence which is used for “molecular beacons”.
An oligonucleotide stock solution at the strand concentration of 0.2 μM in 0.1 M LiCl, 10 mM cacodylate buffer, pH 7.6, is prepared beforehand, heated briefly at 90° C. and slowly cooled to 20° C., and then distributed in aliquots of 600 μl in the fluorescence cuvettes. 3 μl of water (for the control) or 3 μl of test product (stock at 200 μM, final concentration 1 μM) are then added and mixed. The samples are then allowed to incubate for at least 1 hour at 20° C. before each measurement. The use of longer incubation times (up to 24 hours) has no influence on the result obtained.
Each experiment allows the measurement of only one sample. The latter is first incubated at an initial temperature of 20° C., heated to 80° C. over 38 minutes, left for 5 minutes at 80° C. and then cooled to 20° C. over 62 minutes. During this time, the fluorescence is measured simultaneously at two emission wavelengths (515 nm and 588 nm) using 470 nm as excitation wavelength. A measurement is carried out every 30 seconds. The temperature of the water bath is recorded in parallel, and the fluorescence profile as a function of the temperature is reconstituted from these values. The fluorescence profiles are then normalized between 20° C. and 80° C., and the temperature for which the intensity of emission at 515 nm is the mean of those at high and low temperature is called Tm. Under these conditions, the Tm of the reference sample without addition of product is 44° C. in a lithium chloride buffer. This temperature is increased to more than 55° C. in a sodium chloride buffer. The addition of a G-quadruplex-stabilizing compound induces an increase in the Tm. This increase is judged to be significant if it is greater than 3°.

Experiment [2] relates to human telomerease (HL60 cell extract). The experiment can be described thus: Antitelomerease activity: extension of oligonucleotide TS followed by PCR amplification, with HL60 extract. Conditions: read-out: TRAP IC50. In kind it is biochemical. The method, then:
The antitelomerease biological activity is determined by the following experimental protocol:
The leukaemia line HL60 is obtained from ATCC (American Type Culture Collection, Rockville, USA). The cells are cultured in suspension in RPMI 1640 medium containing L-glutamine at 2 mM, penicillin 200 U/ml, streptomycin 200 μg/ml, gentamycin 50 μg/ml and supplemented with 10% heat-inactivated foetal calf serum.
An aliquot of 10^5 cells is centrifuged at 3000×G and the supernatant discarded. The cell pellet is resuspended by several successive pipettings in 200 μl of lysis buffer containing 0.5% CHAPS, 10 mM Tris-HCl, pH 7.5, 1 mM MgCl2, 1 mM EGTA, 5 mM β-mercaptoethanol, 0.1 mM PMSF and 10% glycerol and is stored in ice for 30 minutes. The lysate is centrifuged at 160,000×G for 20 minutes at 4° C. and 160 μl of supernatant are recovered. The proteins in the extract are assayed by the Bradford method. The extract is stored at −80° C.
The inhibition of the telomerease activity is determined by a protocol for extension of the oligonucleotide TS (^5′AATCGTTCGAGCAGAGTT^3′), in the presence of a cellular extract enriched in telomerease activity and compounds which are added at various concentrations (10, 1, 0.1 and 0.01 μM). The extension reaction is followed by a PCR amplification of the extension products with the aid of the oligonucleotides TS and CXext (^5′[…]^3′).
The reaction medium is prepared based on the following composition:
The oligonucleotides are obtained from Eurogentec (Belgium) and are stored at −20° C. at a stock concentration of 1 mg/ml in distilled water.
The reaction samples are assembled in 0.2 ml PCR tubes and one drop of paraffin oil is deposited on each of the reactions of the experiment before closing the tubes.
The reaction samples are then incubated in a Cetus 4800-type PCR apparatus under the following temperature conditions: • 15 minutes at 30° C., • 1 minute at 90° C., • followed by 30 cycles of, • 30 seconds at 94° C., • 30 seconds at 50° C., • and 1 minute 30 seconds at 72° C., • followed by a final cycle of 2 minutes at 72° C.
For each of the samples, an aliquot of 10 μl is pipetted under the oil layer and mixed with 5 μl of a loading buffer containing:
The samples are then analysed by electrophoresis on 12% acrylamide gel in a 1×TBE buffer for 1 hour at a voltage of 200 volts, with the aid of a Novex electrophoresis system.
The acrylamide gels are then dried on a sheet of Whatmann 3 mm paper at 80° C. for 1 hour.
The analysis and the quantification of the reaction products are carried out with the aid of an InstantImager apparatus (Pacard).
For each compound concentration tested, the results are expressed as percentage inhibition of the reaction and calculated from the untreated enzymatic control and from the enzyme-free sample (blank) according to the following formula: (compound value−blank value/enzymatic control value−blank value)×100.
The concentration of compound inducing a 50% inhibition of the telomerease reaction (IC50) is determined with the aid of a semilogarithmic graphical representation of the inhibition values obtained as a function of each of the compound concentrations tested.
A compound is considered to be active as an antitelomerease agent when the quantity inhibiting 50% of the telomerease reaction is in particular less than 5 μM.

This note sets out measurements from patent US6887873B2, “Triazine derivatives and their application as antitelomerase agents” (Aventis Pharma S.A., priority 2001, dated 2005).

Several values for one entry are separate records, joined by “and”; a condition that tells them apart may be missing. Identical values can stand only once.

As to `Cc1cc(N)c2cc(Nc3nc(Nc4ccncc4)nc(Nc4ccccc4Cl)n3)ccc2n1` [Example 4], the “G4 delta Tm” value in experiment [1] is 5.5 °C. The IC50 in experiment [2] was 3000 nM.
The matching figures for `Cc1cc(N)c2cc(Nc3nc(NCCN(C)C)nc(Nc4ccccc4Cl)n3)ccc2n1` [Example 5]: 2.0 °C and 2700 nM.
As for `Cc1cc(N)c2cc(Nc3nc(NCCCN(C)C)nc(Nc4ccccc4Cl)n3)ccc2n1` [Example 6], in experiment [2], the IC50 amounted to 3500 nM.
Turning to `Cc1cc(N)c2cc(Nc3nc(Nc4ccccc4Cl)nc(NC4CCN(C)CC4)n3)ccc2n1` [Example 7], in experiment [1], the “G4 delta Tm” value amounted to 3.0 °C. In addition, in experiment [2], the IC50 amounted to 2400 nM.
The matching figures for `Cc1cc(N)c2cc(Nc3nc(Nc4ccccc4Cl)nc(N4CCN(C)CC4)n3)ccc2n1` [Example 8]: 1.5 °C and 3200 nM.
The matching figures for `Cc1cc(N)c2cc(Nc3nc(NCCCN(C)C)nc(Nc4ccc5nc(C)cc(N(C)C)c5c4)n3)ccc2n1` [Example 9]: 10.0 °C and 100 nM.
For the compound `Cc1cc(N)c2cc(Nc3nc(Nc4ccncc4)nc(Nc4ccc5nc(C)cc(N)c5c4)n3)ccc2n1` [Example 10], in experiment [1], the “G4 delta Tm” value was 8.9 °C. Moreover, the IC50 in experiment [2] was found to be 360 nM.
The matching figures for `Cc1cc(N)c2cc(Nc3nc(Nc4ccc5nc(C)cc(N)c5c4)nc(Nc4ccc5nc(C)cc(N(C)C)c5c4)n3)ccc2n1` [Example 11, 2,4-bis(4-amino-2-methylquinolin-6-yl)amino-6-(4-dimethylamino-2-methylquinolin-6-yl)amino-[1,3,5]triazine]: 11.4 °C and 160 nM.
Consider `Cc1cc(N)c2cc(Nc3nc(NCCCN(C)C)nc(Nc4ccc5nc(C)cc(N)c5c4)n3)ccc2n1` [Example 12], for which the “G4 delta Tm” value in experiment [1] turned out to be 9.4 °C. In addition, the IC50 in experiment [2] worked out at 300 nM.
In the same order, the values of `Cc1cc(N)c2cc(Nc3nc(Nc4ccc5nc(C)cc(N)c5c4)nc(NC4CCN(C)CC4)n3)ccc2n1` [Example 13] are 7.2 °C and 260 nM.
The matching figures for `Cc1cc(N)c2cc(Nc3nc(Nc4ccc5nc(C)cc(N)c5c4)nc(N4CCN(C)CC4)n3)ccc2n1` [Example 14]: 4.4 °C and 210 nM.
`Cc1cc(N)c2cc(Nc3nc(Nc4ccc5nc(C)cc(N)c5c4)nc(Oc4ccccc4)n3)ccc2n1` [Example 29, 2,4-bis(4-amino-2-methylquinolin-6-yl)amino-6-phenoxy-[1,3,5]triazine]: in experiment [2], the IC50 was 320 nM and 470 nM.
Still for that read-out and setting: the value for `Cc1cc(N)c2cc(Nc3nc(Nc4ccc5nc(C)cc(N)c5c4)nc(Nc4cccc5nn[nH]c45)n3)ccc2n1` [Example 61] was 360 nM; that for `Cc1cc(N)c2cc(Nc3nc(NCc4cccc5ccccc45)nc(Nc4ccc5nc(C)cc(N)c5c4)n3)ccc2n1` [Example 78] was 1500 nM; that for `Cc1cc(N)c2cc(Nc3nc(Nc4ccc5ccccc5c4)nc(Nc4ccc5nc(C)cc(N)c5c4)n3)ccc2n1` [Example 79] was 3600 nM.
On the same count and under the same terms, to `Cc1cc(N)c2cc(Nc3nc(NCCN4CCOCC4)nc(Nc4ccc5nc(C)cc(N)c5c4)n3)ccc2n1` [Example 80] belongs 1200 nM.
The same measure, in the same setting: the value for `Cc1cc(N)c2cc(Nc3nc(NCc4cccc5cnccc45)nc(Nc4ccc5nc(C)cc(N)c5c4)n3)ccc2n1` [Example 81] was 1400 nM; that for `COc1cccc(Nc2nc(Nc3ccc4nc(C)cc(N)c4c3)nc(Nc3ccc4nc(C)cc(N)c4c3)n2)c1` [Example 82] was 1600 nM.
`COCCNc1nc(Nc2ccc3nc(C)cc(N)c3c2)nc(Nc2ccc3nc(C)cc(N)c3c2)n1` [Example 84]: in experiment [2], the IC50 is 2200 nM.
On the same count and under the same terms, to `Cc1cc(N)c2cc(Nc3nc(Nc4ccc5nc(C)cc(N)c5c4)nc(Nc4nccc5ccccc45)n3)ccc2n1` [Example 87] belongs 1500 nM.
Turning to `Cc1cc(N)c2cc(Nc3nc(Nc4ccc5nc(C)cc(N)c5c4)nc(Nc4ncccn4)n3)ccc2n1` [Example 94], in experiment [2], the IC50 amounted to 940 nM.
For `Cc1cc(N)c2cc(Nc3nc(Nc4ccc5nc(C)cc(N)c5c4)nc(Nc4cccc5ncccc45)n3)ccc2n1` [Example 95], in experiment [2], the half-inhibitory concentration (IC50) amounted to 930 nM.
With `Cc1cc(N)c2cc(Nc3nc(Nc4ccc5ncccc5c4)nc(Nc4ccc5nc(C)cc(N)c5c4)n3)ccc2n1` [Example 96], the concentration for half-maximal inhibition (IC50) in experiment [2] worked out at 480 nM.
For `Cc1cc(N)c2cc(Nc3nc(Nc4ccc5nc(C)cc(N)c5c4)nc(Nc4cccc5cccnc45)n3)ccc2n1` [Example 97], the IC50 in experiment [2] was 690 nM.
Same read-out and setting: the value for `Cc1cc(N)c2cc(Nc3nc(Nc4ccc5nc(C)cc(N)c5c4)nc(Nc4ccc5c6c(cccc46)CC5)n3)ccc2n1` [Example 99] was 600 nM; that for `Cc1cc(N)c2cc(Nc3nc(Nc4ccc5nc(C)cc(N)c5c4)nc(Nc4cc5ccccc5cn4)n3)ccc2n1` [Example 100] was 450 nM.
The same measure, in the same setting: the value for `Cc1cc2c(Nc3nc(Nc4ccc5nc(C)cc(N)c5c4)nc(Nc4ccc5nc(C)cc(N)c5c4)n3)cccc2cn1` [Example 101] was 810 nM; that for `CCOc1cc(Nc2nc(Nc3ccc4nc(C)cc(N)c4c3)nc(Nc3ccc4nc(C)cc(N)c4c3)n2)c2ncccc2c1` [Example 102] was 570 nM.
Same read-out and setting: the value for `Cc1cc(N)c2cc(Nc3nc(Nc4ccc5nc(C)cc(N)c5c4)nc(Sc4ccc5ccccc5c4)n3)ccc2n1` [Example 116] was 1800 nM; that for `Cc1cc(N)c2cc(Nc3nc(Nc4ccc5nc(C)cc(N)c5c4)nc(Sc4ncccn4)n3)ccc2n1` [Example 121] was 400 nM and 360 nM.

Usually IC50 stands for the concentration needed to halve the response being measured.
